# From ChEMBL document CHEMBL4483862, “Open-source discovery of chemical leads for next-generation chemoprotective antimalarials” (2018)
# Tested on: Plasmodium berghei
# Assay: Luciferase/luciferin-expressing antifolate-resistant parasites were used to infect a culture of HepG2 cells that were pre-incubated with compounds. Infected hepatocytes emit light due to the luciferase reaction. Assay results are presented as the percent inhibition of light emission compared to control. […]
# Format: functional
# Conditions: sporozoite; for IC90: read-out: LUCIFERASE INFECTION ASSAY - IC90
# [1] = read-out: LUCIFERASE INFECTION ASSAY - IC50
SMILES,IC90 [µM],IC50 [1] [µM],further results
CCN1C(=O)N(C2Cc3ccccc3C2)C(=O)C12CCN(Cc1cc3ccccc3[nH]1)CC2,> 7.46,,"IC50 (HEPG2TOX_HILL_SLOPE 3.47, HEPG2TOX_R_SQUARED 0.984, PBLUC_HILL_SLOPE 2.65, PBLUC_R_SQUARED 0.483, read-out: LUCIFERASE INFECTION ASSAY - IC50): 3.77 µM"
Nc1cccc(OCc2cccnc2)c1,> 10,> 10,
O=C(Nc1cc(Cl)ccc1OC(=O)c1ccc(C(F)(F)F)cc1)c1ccc(C(F)(F)F)cc1,2.9,,"IC50 (HEPG2TOX_HILL_SLOPE 3.38, HEPG2TOX_R_SQUARED 0.98, PBLUC_HILL_SLOPE 2.51, PBLUC_R_SQUARED 0.591, read-out: LUCIFERASE INFECTION ASSAY - IC50): 1.21 µM"
FC(F)(F)c1cc(N/N=C2/CCSc3sccc32)cc(C(F)(F)F)c1,> 8.33,,"IC50 (PBLUC_HILL_SLOPE 3.14, PBLUC_R_SQUARED 0.463, read-out: LUCIFERASE INFECTION ASSAY - IC50): 4.15 µM"
Cc1cccc(-c2cc(C(=O)Nc3cccc(Cl)c3)[nH]n2)c1O,9.89,,"IC50 (HEPG2TOX_HILL_SLOPE 6.46, HEPG2TOX_R_SQUARED 0.463, PBLUC_HILL_SLOPE 41.9, PBLUC_R_SQUARED 0.193, read-out: LUCIFERASE INFECTION ASSAY - IC50): 9.38 µM"
CC(C)(C)c1ccc(C(=O)NCCOc2ccccc2Cl)cc1,0.863,,"IC50 (FFLUC_HILL_SLOPE 11.3, FFLUC_R_SQUARED 0.0884, PBLUC_HILL_SLOPE 2.08, PBLUC_R_SQUARED 0.74, read-out: LUCIFERASE INFECTION ASSAY - IC50): 0.3 µM"
CC(C)CC(N)c1csc(NC(=O)NC(c2ccccc2)c2ccccc2)n1 (configuration not stated),3.63,2.93,
Clc1ccc2c(Nc3ccc(N4CCOCC4)cc3)ccnc2c1,> 10,> 10,
Cc1cc(C(=O)OCC(=O)Nc2cccc(C#N)c2)c(C)n1-c1ccccc1,> 10,,"IC50 (HEPG2TOX_HILL_SLOPE 2.12, HEPG2TOX_R_SQUARED 0.531, read-out: LUCIFERASE INFECTION ASSAY - IC50): > 10 µM"
Cc1ccc(Cn2ccs/c2=N/C(=O)c2cc3c(s2)CCCCC3)cc1,0.491,,"IC50 (PBLUC_HILL_SLOPE 1.2, PBLUC_R_SQUARED 0.823, read-out: LUCIFERASE INFECTION ASSAY - IC50): 0.0784 µM"
CCN(CCO)c1ccc(NC2=C(NC(C)=O)C(=O)c3ccccc3C2=O)cc1,> 10,,"IC50 (FFLUC_HILL_SLOPE 10.4, FFLUC_R_SQUARED 0.141, HEPG2TOX_HILL_SLOPE 0.681, HEPG2TOX_R_SQUARED 0.905, PBLUC_HILL_SLOPE 1.27, PBLUC_R_SQUARED 0.687, read-out: LUCIFERASE INFECTION ASSAY - IC50): 2.16 µM"
CCN(Cc1cccc(F)c1)C(=O)Nc1ccccc1-n1nc(C)cc1C,> 10,> 10,
Cn1ccnc1Sc1c[nH]c(=S)nc1-c1ccc(Cl)cc1,9.04,,"IC50 (FFLUC_HILL_SLOPE 122, FFLUC_R_SQUARED 0.312, PBLUC_HILL_SLOPE 4.61, PBLUC_R_SQUARED 0.38, read-out: LUCIFERASE INFECTION ASSAY - IC50): 5.61 µM"
O=S(=O)(N=C1c2ccccc2/C(=N/S(=O)(=O)c2ccc(Cl)cc2)C2C3C=CC(CC3)C12)c1ccc(Cl)cc1 (configuration not stated),> 10,8.44,
COc1cc2nc(NC(=O)c3[nH]c4c(c3C)C(=O)CCC4)sc2cc1OC,> 10,> 10,
CCCCNC(=O)c1c(NC(=O)C(C)Oc2ccccc2)nc2ccccn12 (configuration not stated),> 8.67,,"IC50 (HEPG2TOX_HILL_SLOPE 1.79, HEPG2TOX_R_SQUARED 0.135, PBLUC_HILL_SLOPE 4.23, PBLUC_R_SQUARED 0.241, read-out: LUCIFERASE INFECTION ASSAY - IC50): 6.54 µM"

SMILES,IC90 [µM],IC50 [1] [µM],further results
COc1cc(NC(=O)C(C)(C)n2cc(-c3cccnc3)cn2)cc(OC)c1,> 10,> 10,
CCn1c(O)c(C2NCCc3c2[nH]c2ccc(OC)cc32)c(=O)[nH]c1=O (configuration not stated),4.71,,"IC50 (HEPG2TOX_HILL_SLOPE 0.178, HEPG2TOX_R_SQUARED 0.706, PBLUC_HILL_SLOPE 1.13, PBLUC_R_SQUARED 0.918, read-out: LUCIFERASE INFECTION ASSAY - IC50): 0.675 µM"
O=C(Nc1ccc(S(=O)(=O)NCCCN2CCOCC2)cc1)c1csc(-c2ccsc2)n1,> 10,,"IC50 (PBLUC_HILL_SLOPE 27, PBLUC_R_SQUARED 0.0565, read-out: LUCIFERASE INFECTION ASSAY - IC50): 9.66 µM"
Cc1nn(Cc2ccccc2Cl)c(Cl)c1C(=O)OC(C(=O)c1c[nH]c2ccccc12)c1ccccc1 (configuration not stated),> 10,,"IC50 (PBLUC_HILL_SLOPE 3.17, PBLUC_R_SQUARED 0.115, read-out: LUCIFERASE INFECTION ASSAY - IC50): 6.36 µM"
c1ccc(-c2csc3nc(-c4cccnc4)nc(NCC45CC6CC(CC(C6)C4)C5)c23)cc1,> 10,> 10,
CN(C)CCNC(=O)c1ccc(-c2cn3c(-c4ccsc4)cnc3cn2)cc1,> 8.43,> 8.43,
Cc1cccc(OCC(=O)Nc2nc(C)c(Cc3ccc4c(c3)OCO4)s2)c1,> 10,,"IC50 (PBLUC_HILL_SLOPE 0.768, PBLUC_R_SQUARED 0.0907, read-out: LUCIFERASE INFECTION ASSAY - IC50): > 10 µM"
CCC(CNC(=O)NCC(=O)Nc1cc(Cl)ccc1Cl)c1ccccc1 (configuration not stated),> 10,,"IC50 (FFLUC_HILL_SLOPE 6.98, FFLUC_R_SQUARED 0.07, read-out: LUCIFERASE INFECTION ASSAY - IC50): > 10 µM"
CS(=O)(=O)c1sc(NC(=O)Nc2ccc(Cl)cc2)c2c1C=CCC2,> 8.62,> 8.62,
O=S(=O)(NCc1cc(Cl)cc(Cl)c1)c1cc(C(F)(F)F)cc(C(F)(F)F)c1,> 7.3,,"IC50 (PBLUC_HILL_SLOPE 3.39, PBLUC_R_SQUARED 0.218, read-out: LUCIFERASE INFECTION ASSAY - IC50): 6.75 µM"
Cc1ccc(CSc2nccc(-c3c(C)nc4ccccn34)n2)cc1,> 9.53,,"IC50 (HEPG2TOX_HILL_SLOPE 2.56, HEPG2TOX_R_SQUARED 0.969, PBLUC_HILL_SLOPE 4.1, PBLUC_R_SQUARED 0.204, read-out: LUCIFERASE INFECTION ASSAY - IC50): 6.17 µM"
Cn1c(NCc2ccccc2)nc2cnc(-c3ccc4ccccc4c3)cc21,9.43,,"IC50 (HEPG2TOX_HILL_SLOPE 9.86, HEPG2TOX_R_SQUARED 0.539, PBLUC_HILL_SLOPE 12.2, PBLUC_R_SQUARED 0.511, read-out: LUCIFERASE INFECTION ASSAY - IC50): 7.88 µM"
COc1ccc(OCCCC(=O)N(Cc2ccccc2)c2nc3c(C)cccc3s2)cc1,> 10,> 10,
O=C(Nc1cc(C(F)(F)F)cc(C(F)(F)F)c1)Nc1cnn(-c2ccc([N+](=O)[O-])cc2)c1C(F)(F)F,3.21,,"IC50 (PBLUC_HILL_SLOPE 8.84, PBLUC_R_SQUARED 0.29, read-out: LUCIFERASE INFECTION ASSAY - IC50): 2.5 µM"
Cc1cccc(NC(=O)NC(=O)CSc2ccc(S(=O)(=O)N(C)C)cn2)c1C,> 10,,"IC50 (FFLUC_HILL_SLOPE 22.1, FFLUC_R_SQUARED 0.241, read-out: LUCIFERASE INFECTION ASSAY - IC50): > 10 µM"
